Columns and labels:
Format in all cases: cell-based
hTLR7 = target: T1, hTLR7 (Homo sapiens, UniProt Q9NYK1); assay: Human TLR/NLR agonist screening, NF-κB SEAP reporter in HEK293 cells; details: agonist mode, Control+ = CL307 1 μg/mL
T1 construct: expressed in transfected cells; host or cells: HEK293
T1 sequence (Q9NYK1 27-1049): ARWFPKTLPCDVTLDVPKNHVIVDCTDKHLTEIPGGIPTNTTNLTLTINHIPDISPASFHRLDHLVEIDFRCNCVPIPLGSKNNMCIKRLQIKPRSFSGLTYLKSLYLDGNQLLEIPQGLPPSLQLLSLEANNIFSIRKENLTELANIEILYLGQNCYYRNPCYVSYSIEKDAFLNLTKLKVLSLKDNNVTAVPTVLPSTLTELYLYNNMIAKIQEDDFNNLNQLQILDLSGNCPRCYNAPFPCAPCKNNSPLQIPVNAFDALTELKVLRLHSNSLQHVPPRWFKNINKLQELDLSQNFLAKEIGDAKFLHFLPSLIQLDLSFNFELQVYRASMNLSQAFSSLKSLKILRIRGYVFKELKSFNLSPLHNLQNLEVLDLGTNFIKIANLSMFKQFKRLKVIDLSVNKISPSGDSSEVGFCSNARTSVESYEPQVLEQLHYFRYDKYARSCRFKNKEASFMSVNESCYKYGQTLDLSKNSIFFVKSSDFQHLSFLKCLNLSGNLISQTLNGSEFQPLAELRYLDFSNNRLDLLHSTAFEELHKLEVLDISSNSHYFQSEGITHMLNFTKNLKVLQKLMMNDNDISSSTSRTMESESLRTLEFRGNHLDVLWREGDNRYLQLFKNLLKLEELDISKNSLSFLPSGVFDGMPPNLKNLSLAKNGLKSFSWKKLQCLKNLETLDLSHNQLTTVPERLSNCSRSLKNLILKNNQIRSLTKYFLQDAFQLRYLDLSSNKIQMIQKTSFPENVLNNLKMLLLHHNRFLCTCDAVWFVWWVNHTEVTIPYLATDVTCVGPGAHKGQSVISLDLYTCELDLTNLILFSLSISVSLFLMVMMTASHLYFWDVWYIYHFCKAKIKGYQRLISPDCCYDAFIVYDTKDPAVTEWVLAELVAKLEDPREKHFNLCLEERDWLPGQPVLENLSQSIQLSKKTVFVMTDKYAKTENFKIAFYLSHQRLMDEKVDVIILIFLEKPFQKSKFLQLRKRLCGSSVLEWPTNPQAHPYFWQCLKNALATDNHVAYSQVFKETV
Procedure: (§1) Toll-Like Receptor (TLR), NOD-Like Receptor (NLR) and C-Type Lectin Receptor (CLR) stimulation were tested by assessing NF-κB activation in HEK293 cells expressing a given TLR, NLR or CLR. The activity of the test articles was tested at one concentration and compared to control ligands. These steps were performed in triplicate.
hTLR7: CL307 at 1 μg/mL Antagonist: 10 ng/mL.
(§2) In a 96-well plate (200 μL total volume) containing the appropriate cells (50,000-75,000 cells/well), 20 μL of the test article or the positive control ligand was added to the wells. For the antagonist assay, the test article was incubated with the cells, at 37° C. with 5% CO2, for 30 minutes prior to the addition of the positive control ligand to the wells. The media added to the wells was designed for the detection of NF-κB induced SEAP expression. After a 16-24 hr incubation the optical density (OD) was read at 650 nm on a Molecular Devices SpectraMax 340PC absorbance detector.
The fold induction (ratio of average induced value to average non-induced value) results were as follows: […]

hDectin-1a = target: T2, hDectin-1a (Homo sapiens, UniProt Q9BXN2); assay: Human CLR agonist screening, NF-κB SEAP reporter in HEK293 cells; details: agonist mode, Curdlan 100 μg/mL
T2 construct: expressed in transfected cells; host or cells: HEK293
T2 sequence (Q9BXN2 whole entry): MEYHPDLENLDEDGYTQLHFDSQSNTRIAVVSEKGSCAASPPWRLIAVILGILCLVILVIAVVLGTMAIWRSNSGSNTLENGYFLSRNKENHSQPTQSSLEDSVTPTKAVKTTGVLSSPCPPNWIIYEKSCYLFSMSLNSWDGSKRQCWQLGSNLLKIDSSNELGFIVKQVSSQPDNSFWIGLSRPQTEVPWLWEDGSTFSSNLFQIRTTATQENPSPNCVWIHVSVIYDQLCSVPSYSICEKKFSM
Procedure: as §1
(§3) hDectin-1a and hDectin-1b: WGP Soluble (0-glucan from S. cerevisiae) at 10 ng/mL Antagonist: 5 ng/mL. Curdlan at 100 μg/mL. Antagonist: 100 μg/mL. Zymosan Depleted (hot alkali treated S. cerevisiae) at 5 μg/mL Antagonist: 3 μg/mL.
as §2
(§4) Fold Induction (Ratio of Average Induced Value to Average Non-Induced Value): […]

hDectin-1b = target: T3, hDectin-1b (Homo sapiens, UniProt Q9BXN2); assay: as above; details: agonist mode, Curdlan 100 μg/mL
T3 construct: expressed in transfected cells; host or cells: HEK293
T3 sequence (Q9BXN2 1-201 isoform Q9BXN2-2): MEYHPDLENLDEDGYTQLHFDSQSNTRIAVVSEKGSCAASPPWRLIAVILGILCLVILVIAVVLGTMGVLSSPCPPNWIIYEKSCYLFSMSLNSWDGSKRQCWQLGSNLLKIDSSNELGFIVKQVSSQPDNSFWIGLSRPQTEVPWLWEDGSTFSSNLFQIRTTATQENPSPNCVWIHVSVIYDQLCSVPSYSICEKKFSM
Procedure: as §1, §3, §2, §4

Compound | Fold induction (ratio of average induced value to average non-induced value) (hTLR7) | Fold induction (ratio of average induced value to average non-induced value) (hDectin-1a) | Fold induction (ratio of average induced value to average non-induced value) (hDectin-1b)
CCCCNc1nc(N)c2[nH]c(=O)n(Cc3ccc(C(=O)NCC(=O)NCCCNCCCCNCCCN)cc3)c2n1 [CL307] | 34 |  | 
Curdlan |  | 6 | 8

Source: patent US11400059B2, “Treatment of pain and/or pain related symptoms associated with dysmenorrhea” (ALYRA BIOTECH PTY LTD, priority 2017, dated 2022)
